Values of other authors in patent US20120101089A1, “Anti-Emetic Substance” (priority 2010, published 2012).
Entries after “also recorded” stand apart in the source; their conditions may differ. Where two headings read alike, the source gives them in different places.

Assays:
[1] = for prevention of PONV symptoms: i.v. tropisetron 5 mg, droperidol 1.25 mg at the end of gynaecological surgery (Purhonen); for prevention of PONV versus placebo: ephedrine 0.5 mg/kg i.m., propofol […] i.v., laparoscopic surgery; for PONV prevention versus comparators: major gynecological surgery; for PONV prevention versus metoclopramide 10 mg or placebo: granisetron 3 mg, tropisetron 5 mg before start of anesthesia (Naguib)
[2] = for Adverse Effect: common adverse effects associated with single agents, listed per class; for sedation, droperidol versus ondansetron groups: i.v. ondansetron 4 mg, droperidol 20 μg/kg, outpatient gynaecological laparoscopy
[3] = for optimal dose for PONV treatment: children older than 2 years, intravenously
[4] = not given; remark: listed apart in the source
[5] = not given; remark: listed apart in the source
[6] = 15 mg and 0.15 mg/kg i.v. immediately after umbilical cord clamped; lidocaine, morphine epidural

SMILES: O=C(CCCN1CC=C(n2c(=O)[nH]c3ccccc32)CC1)c1ccc(F)cc1 [droperidol]
- duration of action / effect (following administration, route not stated): ≤ 24 h
- prevention of PONV ([1]; 5 μg/kg i.v. 1 hour before end of anesthesia, children 11 to 15 years): effective in preventing PONV
- best anti-emetic effectiveness among groups ([1]; 1.25 mg dose (Fortney)): best anti-emetic effectiveness
- prevention of PONV versus i.v. droperidol 1.25 mg or ondansetron 4 mg ([1]; i.v. 0.625 mg at start of anesthesia, outpatient gynecological operations): as effective
- PONV prevention, low versus higher dose ([1]; i.v. 0.625 mg immediately following intubation): as effective as intravenous droperidol 1.25 mg
- prevention of PONV versus comparators ([1]; i.v. 1.25 mg before end of general anesthesia, female patients, elective orthopaedic surgery): significantly superior to intravenous metoclopromide 10 mg and a saline placebo
- prevention of PONV versus comparators ([1]; i.v. 1.25 mg immediately before end of anesthesia, day-stay and major gynaecological surgery): superior to intravenous metoclopramide 10 mg, intravenous domperidone 5 mg and an intravenous saline placebo
- patients with no emesis versus i.v. ondansetron 8 mg ([1]; i.v. 2.5 mg, women, inpatient minor gynaecological surgery): more patients
- prevention of PONV symptoms [1]: failed to prevent any PONV symptoms
- anti-emetic effectiveness versus haloperidol ([1]; intramuscular 5 mg): equivalent anti-emetic effectiveness to intramuscular haloperidol 2 mg
- sedation or other adverse effects ([2]; 1.25 mg dose (Fortney)): no increase in sedation or other adverse effects
- Adverse Effect [2]: Sedation, EPS,
- adverse effects (dystonic reactions, EPS, sedation) ([2]; i.v. 0.625 mg and 1.25 mg): few adverse effects
- sedation or other adverse effects ([2]; i.v. 0.625 mg or 1.25 mg, outpatient gynecological operations): no increase in sedation or other adverse effects
- anxiety and drowsiness ([2]; i.v. 1.25 mg at the end of gynaecological surgery (Purhonen)): increase in anxiety and drowsiness
- adverse effects versus studies with dose less than 2.5 mg ([2]; i.v. 2.5 mg): more adverse effects (i.e. sedation, dizziness)
- sedation, droperidol versus ondansetron groups [2]: no difference

SMILES: CC(CN1c2ccccc2Sc2ccccc21)N(C)C (centres unmarked) [promethazine]
- Adverse Effect [2]: Sedation, EPS, hypotension,

SMILES: CC(C)c1cccc(C(C)C)c1O [propofol]
- prevention of PONV by anesthetic used ([1]; 0.5 mg/kg i.v., outpatient laparoscopic cholecystectomy): more effective in preventing PONV after sevoflurane anesthesia than desflurane anesthesia
- plasma concentration necessary to obtain a 50% reduction in postoperative nausea ([1]; 10 mg i.v. bolus followed by infusion of 10 μg/kg/min): 343 ng/L
- overall occurrence of PONV versus 10% Intralipid ([1]; 20-hour postoperative 0.1 ml/kg/hour infusion): less
- prevention of PONV versus placebo [1]: more effective, with no haemodynamic changes, than placebo
- effect on PONV ([1]; i.v. bolus 0.1 mg/kg followed by constant infusion of 1 mg/kg/hour): no effect on PONV
- PONV prophylaxis versus thiopentone 1.0 mg/kg ([1]; i.v. subhypnotic 0.5 mg/kg, first 6 hours after middle ear surgery): significantly better PONV prophylaxis against retching and vomiting
- prevention of PONV versus ondansetron ([1]; intraoperative intravenous, first 6 hours postoperatively): equally as effective as intravenous ondansetron 4 mg

SMILES: CN1C2CCCC1CC(NC(=O)c1nn(C)c3ccccc13)C2 (centres unmarked) [granisetron, Granisetron]
- PONV prevention versus comparators ([1]; 40 μg/kg immediately prior to induction, women during menstruation (Fujii)): more effective than droperidol 25 μg/kg or metoclopramide 0.2 mg/kg
- optimal dose for PONV prevention ([1]; adults and children, intravenous, other studies): 0.04 mg/kg
- optimum effective prophylactic dose ([1]; adults, i.v. immediately before the start of anesthesia, 0.1, 1 and 3 mg compared): 1 mg
- PONV prevention versus comparators ([1]; i.v. 2.5 mg immediately prior to anesthesia, history of postoperative emesis and motion sickness): more effective than droperidol 1.25 mg or metoclopramide 10 mg
- PONV prevention versus metoclopramide 10 mg or placebo ([1]; i.v. ondansetron 4 mg): significantly greater anti-emetic effectiveness than metoclopramide or placebo
- Adverse Effect [2]: Headache, dizziness

SMILES: CN[C@@H](C)[C@H](O)c1ccccc1 [ephedrine]
- prevention of PONV versus placebo [1]: more effective, with no haemodynamic changes, than placebo

SMILES: O=C(CCCN1CCC(O)(c2ccc(Cl)cc2)CC1)c1ccc(F)cc1 [haloperidol]
- duration of action (intramuscular): approximately 12 hours
- onset time / onset of action (intramuscular): approximately 30 minutes
- effectiveness in PONV ([1]; 7 μg/kg i.v. and 0.5 to 4.0 mg i.m. for prevention, 1 mg i.m. for treatment): effective in PONV, with little sedative effect
- Adverse Effect [2]: Sedation, EPS,

SMILES: CN1[C@@H]2CC[C@H]1C[C@@H](OC(=O)c1c[nH]c3ccccc13)C2 [tropisetron, Tropisetron]
- prevention of PONV ([1]; 5 mg i.v. before start of anesthesia, breast and gynaecological surgery): effective for prevention of PONV
- PONV prevention versus metoclopramide 10 mg or placebo ([1]; i.v. ondansetron 4 mg): significantly greater anti-emetic effectiveness than metoclopramide or placebo
- prevention of PONV symptoms [1]: effectively prevented vomiting, but not nausea and retching
- optimal effective dose for treatment of PONV ([3]; intravenous, abdominal and non-abdominal surgeries (Alon)): 2 mg
- patients with response ([4]; single agent, first study): about 80%
- Adverse Effect [2]: Headache, dizziness

SMILES: CN1[C@@H]2C[C@@H](OC(=O)[C@H](CO)c3ccccc3)C[C@H]1[C@@H]1O[C@@H]12 [scopolamine, Scopolamine]
- Adverse Effect [2]: Sedation, dry mouth,

SMILES: CCN(CC)C(=O)C1CN2CCc3cc(OC)c(OC)cc3C2CC1OC(C)=O (centres unmarked) [benzquinamide, Benzquinamide]
- Adverse Effect [2]: Sedation, EPS, restlessness,

SMILES: CS(=O)(=O)O.O=C(OC1C[C@@H]2CC3C[C@H](C1)N2CC3=O)c1c[nH]c2ccccc12 (some centres unmarked) [dolasetron mesylate]
- patients with some emesis control ([4]; single-arm study): 65%

SMILES: OCCN1CCN(CCCN2c3ccccc3Sc3ccc(Cl)cc32)CC1 [perphenazine]
- efficacy in preventing PONV versus comparator ([1]; children after tonsillectomy, prophylactic 70 μg/kg): more effective than dexamethasone 150 μg/kg; also recorded: equally as effective as ondansetron 150 μg/kg
- emesis after tonsillectomy ([1]; paediatric patients, prophylactic i.v. 70 μg/kg): decreased emesis
- Adverse Effect [2]: Sedation, EPS, hypotension,

SMILES: O=C(OC1CC2CC3CC(C1)N2CC3O)c1c[nH]c2ccccc12 (centres unmarked) [hydrodolasetron]
- share of the anti-emetic effect (active metabolite of dolasetron): 87%
- mean half-life (intravenous form): ~8.3 h
- mean half-life (oral form): approximately 7.1 hours

SMILES: CN1CCN(C(c2ccccc2)c2ccccc2)CC1 [cyclizine, Cyclizine]
- Adverse Effect [2]: Sedation, dry mouth,

SMILES: Cc1nccn1CC1CCc2c(c3ccccc3n2C)C1=O (centres unmarked) [ondansetron, Ondansetron]
- optimal effective dose for PONV ([1]; adults, intravenously at the start of anesthesia): 4 mg
- optimal effective dose for PONV ([1]; adults, orally 1 to 2 hours before anesthesia): 8 mg
- optimal dose for PONV prevention ([1]; children older than 2 years, orally): 0.1 mg/kg
- prevention of vomiting versus comparators ([1]; i.v. 0.1 mg/kg, children undergoing adenotonsillectomy): more effective in preventing vomiting than dimenhydrimate 0.5 mg/kg or placebo
- efficacy by timing of administration ([1]; i.v. 4 mg, end of surgery versus before induction of anesthesia): significantly better when administered at the end of surgery
- patients with emesis versus i.v. metoclopramide 10 mg or droperidol 0.625 mg ([1]; i.v. 8 mg prior to anesthesia (Alon and Himmelseher)): fewer
- difference between ondansetron and dexamethasone administered alone ([1]; i.v. ondansetron 4 mg, dexamethasone 8 mg, major gynaecological surgery): No difference
- PONV prevention versus metoclopramide 10 mg or placebo ([1]; i.v. ondansetron 4 mg): significantly greater anti-emetic effectiveness than metoclopramide or placebo
- optimal dose for PONV treatment ([3]; <40 kg): 0.1 mg/kg
- optimal dose for PONV treatment ([3]; >40 kg): 4 mg
- treatment of PONV versus comparators ([3]; i.v. 4 mg, following gynecological laparoscopy (Polati)): better efficacy than intravenous metoclopramide 10 mg or placebo
- control of PONV by repeat dose ([3]; repeat i.v. 4 mg in PACU after failed prophylaxis with i.v. 4 mg (Kovac)): does not appear to offer additional control of PONV
- control of vomiting and nausea during subsequent days of chemotherapy ([4]; single agent (Barbounis)): progressive decline
- cases in which effective ([4]; single agent, day 1 of chemotherapy administration (Barbounis)): about 76%
- incidence of adverse events after additional dose ([2]; additional 4 mg postoperatively): did not result in an increased incidence of adverse events
- Adverse Effect [2]: Headache, dizziness
- sedation, droperidol versus ondansetron groups [2]: no difference

SMILES: CCN(CC)CCNC(=O)c1cc(Cl)c(N)cc1OC [metoclopramide, Metoclopramide]
- treatment of PONV versus comparators ([3]; 10 mg intravenously): as effective as intravenous droperidol 1.25 mg and more effective than intravenous propofol 10 mg
- Adverse Effect [2]: Sedation, EPS, restlessness,
- effect on emetic effects of opioids ([5]; additional 10 to 20 mg i.m. at the end of the operation): reduced the emetic effects of pethidine, but had less effect when morphine was given
- effect on pre-anaesthetic emetic effects of pethidine ([5]; preoperative 10 and 20 mg intramuscularly): abolished the pre-anaesthetic emetic effects of pethidine
- incidence of nausea and vomiting [6]: effectively reduce the incidence of nausea and vomiting

SMILES: O=C(O[C@@H]1C[C@@H]2C[C@H]3C[C@H](C1)N2CC3=O)c1c[nH]c2ccccc12 [dolasetron, Dolasetron]
- clearance and half-life in children compared with young healthy adult volunteers (children): increased clearance and a shorter half-life
- elimination half-life (parent compound): 9 min

SMILES: OCCOCCN1CCN(C(c2ccccc2)c2ccc(Cl)cc2)CC1 (centres unmarked) [hydroxyzine, Hydroxyzine]
- incidence of PONV versus droperidol ([1]; i.m. 100 mg after induction of anesthesia, non-premedicated patients): decrease the incidence of PONV more effectively than intramuscular droperidol 2.5 mg
- Adverse Effect [2]: Sedation, dry mouth,

SMILES: Cc1ncc2n1-c1ccc(Cl)cc1C(c1ccccc1F)=NC2 [midazolam, Midazolam]
- prevention of vomiting after tonsillectomy ([1]; 75 μg/kg i.v. after induction of anesthesia, children): effective for the prevention of vomiting

SMILES: CN(C)CCCN1c2ccccc2Sc2ccc(Cl)cc21 [chlorpromazine]
- Adverse Effect [2]: Sedation, EPS, hypotension,
